Experimental findings from ChEMBL document CHEMBL1134131, “Discovery of 2,3-diaryl-1,3-thiazolidin-4-ones as potent anti-HIV-1 agents” (Bioorg Med Chem Lett, 2001) are described below.

Assay [1] relates to MT4. The assay can be described thus: Cytotoxicity to reduce MT-4 cell viability by 50%. It is filed as functional. The note with it: Homo sapiens.
Assay [2] deals with MT4. The assay can be described thus: Anti-HIV activity to reduce […] cytopathic effect by 50% in MT-4 cells against HIV-1 IIIB. It counts as functional, cell-based. The note with it: Homo sapiens.
Assay [3] concerns MT4. The assay is described as follows: Anti-HIV activity to reduce HIV-2-induced cytopathic effect by 50% in MT-4 cells against HIV-2 ROD. The note with it: Homo sapiens. It counts as functional, cell-based.
In assay [4] the test system is MT4. The assay can be described thus: Concentration required to reduce HIV-1-induced cytopathic effect by 50% in MT-4 cells against HIV-1 IIIB. The note with it: Homo sapiens. It counts as functional, cell-based.
The test system of assay [5] is MT4. The assay can be described thus: Concentration required to reduce HIV-1-induced cytopathic effect by 50% in MT-4 cells against HIV-2 ROD. It counts as functional, cell-based. The note with it: Homo sapiens.
Assay [6] concerns MT4. The assay is described as follows: Evaluated for cytotoxicity and the concentration required to reduce MT-4 cell viability by 50% was reported. It counts as functional. The note with it: Homo sapiens.
The subject of assay [7] is MT4. The assay can be described thus: Evaluated for the inhibition of replication of HIV-1 IIIB or HIV-2 (ROD) in MT-4 cells by using [3H]-dGTP as the radiolabeled substrate. It counts as functional, cell-based. The note with it: Homo sapiens.
In assay [8] the test system is MT4. The assay can be described thus: Anti-HIV activity to reduce […] cytopathic effect by 50% in MT-4 cells against HIV-1 IIIB; NA= not active. It counts as functional, cell-based, Homo sapiens.
Assay [9] deals with MT4. The assay is described as follows: Evaluated for the inhibition of replication of HIV-1 IIIB or HIV-2 (ROD) in MT-4 cells by using [3H]dGTP radiolabeled substrate. It is filed as functional, cell-based. The note with it: Homo sapiens.
For assay [10], the system named is MT4. The assay can be described thus: Anti-HIV activity to reduce […] cytopathic effect by 50% in MT-4 cells against HIV-1 IIIB; NA=not active. It counts as functional, cell-based, Homo sapiens.
Assay [11] in a line: Selectivity index ([…] ratio)of the compound. It counts as functional.
For assay [12], the system named is MT4. The assay is described as follows: Compound was evaluated for the inhibition of replication of HIV-1 IIIB or HIV-2 (ROD) in MT-4 cells by using [3H]dGTP radiolabeled substrate. It counts as functional, cell-based. The note with it: Homo sapiens.

pEC50, pIC50: −log10 of the molar value.

In the assay on MT4 [1], `O=C1CSC(c2c(Cl)cccc2Cl)N1c1ccccc1` (stereo not drawn) showed a CC50 of 38.1 µM. Also, the negative-log EC50 (pEC50) was 6.40 in the assay on MT4 [2] and less than 4.41 in the assay with MT4 [3].
For `O=C1CSC(c2c(F)cccc2F)N1c1ccccc1` (stereo not drawn), the pEC50 with MT4 [4] was 5.64; with MT4 [5] it was less than 3.37. Further, in the assay on MT4 [6], the 50% cytotoxic concentration (CC50) was greater than 429 µM.
Take `Clc1cccc(Cl)c1C1SCc2nc3ccccc3n21` (stereo not drawn): in the assay with MT4 [1], the half-maximal cytotoxic concentration (CC50) worked out at 9.43 µM. For the same molecule, in the assay with MT4 [2], the negative-log EC50 (pEC50) was 6.23.
`Fc1cccc(F)c1C1SCc2nc3ccccc3n21` (stereo not drawn) [THIAZOLOBENZIMIDAZOLE] gave a pIC50 in the assay with MT4 [7] of 4.84. In the assay on MT4 [1], this molecule registered a cytotoxic concentration (CC50) of 19.2 µM. Besides, the negative-log EC50 (pEC50) in the assay on MT4 [2] is 6.45.
Turning to `O=C1CSC(c2c(Cl)cccc2Cl)N1c1ccccn1` (stereo not drawn), in the assay with MT4 [1], half-maximal cytotoxicity (CC50) was put at 38.5 µM. The pEC50 in the assay on MT4 [2] was 6.75; in the assay with MT4 [3], less than 4.41.
`O=C1CSC(c2c(F)cccc2F)N1c1cccnc1` (stereo not drawn) displayed a 50% cytotoxic concentration (CC50) in the assay with MT4 [1] greater than 427 µM. In addition, the values for the pEC50 with MT4 [2] and in the assay with MT4 [3] were 4.02 and less than 3.37, respectively.
The molecule `O=C1CSC(c2c(Cl)cccc2Cl)N1c1cccnc1` (stereo not drawn) registered a CC50 with MT4 [1] of 23.4 µM. The pEC50 with MT4 [2] was less than 4.64. In the assay on MT4 [8], the EC50 entry was “Not Active”.
Turning to `Cc1ccnc(N2C(=O)CSC2c2c(Cl)cccc2Cl)c1` (stereo not drawn), in the assay on MT4 [1], the CC50 was greater than 368 µM. Further, the values for the negative logarithm of the EC50 (pEC50) in the assay with MT4 [2] and in the assay on MT4 [3] were 6.83 and less than 3.43, respectively.
The molecule `Cc1cccc(N2C(=O)CSC2c2c(Cl)cccc2Cl)n1` (stereo not drawn) showed a pIC50 in the assay with MT4 [9] of 5.65. Besides, half-maximal cytotoxicity in the assay with MT4 [1] (CC50) was put at 285 µM. Also, the values for the pEC50 in the assay with MT4 [2] and in the assay with MT4 [3] were 7.36 and 3.55, respectively.
In the assay on MT4 [1], `Cc1cccnc1N1C(=O)CSC1c1c(Cl)cccc1Cl` (stereo not drawn) had a CC50 of 42.6 µM. Also, in the assay with MT4 [10], the EC50 entry is given as “Not Active”. The pEC50 in the assay with MT4 [3] is less than 4.50.
`O=C1CSC(c2c(F)cccc2F)N1c1ccccn1` (stereo not drawn) came in with a CC50 in the assay with MT4 [1] greater than 427 µM. Besides, the negative logarithm of the EC50 (pEC50) was 6.07 in the assay with MT4 [2] and less than 3.37 with MT4 [3].
As to `Cc1cccnc1N1C(=O)CSC1c1c(F)cccc1F` (stereo not drawn), in the assay on MT4 [1], the CC50 was greater than 319 µM. The pEC50 with MT4 [2] was 4.27; with MT4 [3], less than 3.57.
`Cc1ccc(N2C(=O)CSC2c2c(F)cccc2F)nc1` (stereo not drawn) came in with a 50% cytotoxic concentration (CC50) in the assay with MT4 [1] of 202 µM. For the same molecule, the pEC50 with MT4 [2] is 5.29; in the assay on MT4 [3], less than 3.77.
In the assay with MT4 [9], `Cc1ccnc(N2C(=O)CSC2c2c(F)cccc2F)c1` (stereo not drawn) showed a negative logarithm of the IC50 (pIC50) of 5.55. The molecule further had a cytotoxic concentration (CC50) with MT4 [1] of 242 µM. The pEC50 is 6.61 in the assay on MT4 [2] and less than 3.62 in the assay with MT4 [3]. For the same molecule, the Ratio in assay [11] was found to be 976.
As for `Cc1cccc(N2C(=O)CSC2c2c(F)cccc2F)n1` (stereo not drawn), the negative logarithm of the IC50 (pIC50) in the assay with MT4 [12] is 5.54. The midpoint of cytotoxicity in the assay on MT4 [1], the CC50, lay at 126 µM. Also, the pEC50 in the assay with MT4 [2] was 7.09; in the assay with MT4 [3], less than 3.90.
